The source of these data is PMC10668861 (2023).

In the assay the test system is F21D (DNA, G4) GGGTTAGGGTTAGGGTTAGGG
Put plainly: FRET melting. The note with it: 5 mM K+, 95 mM Li+; 10 mM lithium cacodylate, pH 7.2; 0.2 µM DNA, 4 µM compound.

As for `[Ru+2].c1ccc(-c2ccccn2)nc1.c1ccc(-c2ccccn2)nc1.c1ccc2nc3c4cccnc4c4ncccc4c3nc2c1`, the ΔTm came out at 14 ± 1 °C.
